Assay results taken from patent publication US12344610B2, “APOL1 inhibitors and methods of use” (Maze Therapeutics, Inc., priority 2022, dated 2025).

Each molecule was assayed on HEK293 clonal cell line overexpressing APOL1 G1 (assay: APOL1 G1 HEK293 cell rescue assay (Example B3)). Settings: Homo sapiens, HEK293, HEK293 clonal line overexpressing APOL1 G1; geometric mean of at least 2 runs; † = single run; ¥ = concentration at 50% rescue estimated (no sigmoidal curve).
Type: cell-based
Method in brief: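 HEK293 clonal line overexpressing APOL1 G1; EC50 is half-maximal reversal of APOL1-induced cell death. Values are the geometric mean of ≥2 runs on separate days, each run the average of duplicate wells. Where no sigmoidal curve could be fitted, the concentration giving 50% rescue was estimated.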
`CC(C)(CO)c1ncc(OCCN2CCC3(CC2)C(=O)Nc2ccc(Cl)cc23)cn1` [Compound 334, 5-chloro-1′-(2-{[2-(1-hydroxy-2-methylpropan-2-yl)pyrimidin-5-yl]oxy}ethyl)-1,2-dihydrospiro[indole-3,4′-piperidin]-2-one] gave an EC50 of 269 nM. In the case of `C[C@]1(O)C[C@@H](n2ccc3cc(OCCN4CCC5(CC4)C(=O)Nc4ccc(C(F)F)cc45)cnc32)C1` [Compound 350, 5-(difluoromethyl)-1′-[2-({1-[(cis)-3-hydroxy-3-methylcyclobutyl]-1H-pyrrolo[2,3-b]pyridin-5-yl}oxy)ethyl]-1,2-dihydrospiro[indole-3,4′-piperidin]-2-one], the EC50 is reported as 43.9 nM. Work on `C[C@]1(O)C[C@@H](n2c(=O)oc3cc(OCCN4CCC5(CC4)C(=O)Nc4ccc(Cl)cc45)cnc32)C1` [Compound 394, 5-chloro-1′-[2-({2-oxo-3-[(cis)-3-hydroxy-3-methylcyclobutyl]-2H,3H-[1,3]oxazolo[4,5-b]pyridin-6-yl}oxy)ethyl]-1,2-dihydrospiro[indole-3,4′-piperidin]-2-one] yielded an EC50 of 77.7 nM. `O=C1Nc2ccc(Cl)cc2C12CCN(CCOc1cnc(N3CC4(CC(O)C4)C3)nc1)CC2` [Compound 396, 5-chloro-1′-{2-[(2-{6-hydroxy-2-azaspiro[3.3]heptan-2-yl}pyrimidin-5-yl)oxy]ethyl}-1,2-dihydrospiro[indole-3,4′-piperidin]-2-one] showed an EC50 of 85 nM. In the case of `CC(CO)(c1ncc(OCCN2CCC3(CC2)C(=O)Nc2ccc(Cl)cc23)cc1C(F)(F)F)S(C)(=O)=O` (stereo not shown) [Compound 401, 5-chloro-1′-(2-{[6-(1-hydroxy-2-methanesulfonylpropan-2-yl)-5-(trifluoromethyl)pyridin-3-yl]oxy}ethyl)-1,2-dihydrospiro[indole-3,4′-piperidin]-2-one], the EC50 is reported as 68.2 nM. `CC(C)(O)c1ncc(OCCN2CCC3(CC2)C(=O)Nc2ccc(C#N)cc23)cc1C(F)(F)F` [Compound 411, 1′-(2-{[6-(2-hydroxypropan-2-yl)-5-(trifluoromethyl)pyridin-3-yl]oxy}ethyl)-2-oxo-1,2-dihydrospiro[indole-3,4′-piperidine]-5-carbonitrile] gave an EC50 of 55.6 nM. `C[C@]1(O)C[C@@H](n2cnc3cc(OCCN4CCC5(CC4)C(=O)Nc4ccc(C#N)cc45)cc(C(F)(F)F)c32)C1` [Compound 433, 1′-(2-((1-((cis)-3-hydroxy-3-methylcyclobutyl)-7-(trifluoromethyl)-1H-benzo[d]imidazol-5-yl)oxy)ethyl)-2-oxospiro[indoline-3,4′-piperidine]-5-carbonitrile] gave an EC50 of 29.6 nM. Work on `C[C@]1(O)C[C@@H](n2nnc3cc(OCCN4CCC5(CC4)C(=O)Nc4ccc(Cl)cc45)cc(C(F)(F)F)c32)C1` [Compound 434, 5-chloro-1′-[2-({1-[(cis)-3-hydroxy-3-methylcyclobutyl]-7-(trifluoromethyl)-1H-1,2,3-benzotriazol-5-yl}oxy)ethyl]-1,2-dihydrospiro[indole-3,4′-piperidin]-2-one] yielded an EC50 of 14.8 nM. Work on `Cc1nc2cc(OCCN3CCC4(CC3)C(=O)Nc3ccc(Cl)cc34)cc(C(F)(F)F)c2n1[C@H]1C[C@@](C)(O)C1` [Compound 442, 5-chloro-1′-[2-({2-methyl-1-[(cis)-3-hydroxy-3-methylcyclobutyl]-7-(trifluoromethyl)-1H-1,3-benzodiazol-5-yl}oxy)ethyl]-1,2-dihydrospiro[indole-3,4′-piperidin]-2-one] yielded an EC50 of 15.6 nM. Molecule `Cc1nc2cc(OCCN3CCC4(CC3)C(=O)Nc3ccc(C#N)cc34)cc(C(F)(F)F)c2n1[C@H]1C[C@@](C)(O)C1` [Compound 443, 1′-[2-({2-methyl-1-[(cis)-3-hydroxy-3-methylcyclobutyl]-7-(trifluoromethyl)-1H-1,3-benzodiazol-5-yl}oxy)ethyl]-2-oxo-1,2-dihydrospiro[indole-3,4′-piperidine]-5-carbonitrile] has an EC50 of 30.8 nM.
